Results: patent US7122184B2, “Specific monoclonal antibody against terbinafine” (Novartis AG, priority 2000, dated 2006)

Tested on: purified antibodies from hybridoma cell line LAM-JA
Assay: Competitive ELISA for terbinafine derivatives (crossreactivity)
Format: binding, mice
Details: competitor 0.0001 μg/ml; mAb LAM-JA binding to terbinafine-BSA conjugate
Source text: The antibodies of the invention are screened and characterized in conventional manner, e.g. according to their ability to distinguish between terbinafine and its metabolites and derivatives, e.g. by determination of relative cross-reactivity. […] (1994), Stockton Press, p. 89). Relative crossreactivity is the concentration of analyte giving 50% at the point where the reduction in signal corresponds to 50% of the signal achieved in the absence of analyte (ratio B/B0 of 50%), as a percentage of the analyte concentration giving the same fall in signal.
Microtiter plates are coated with 5 μg/ml terbinafine hydrochloride—protein (BSA) conjugate in carbonate buffer overnight at 4°, then saturated with blocking reagent [SuperBloc® buffer (Pierce)] and washed 3× with 0.05% (v/v) PBS-TWEEN® (polyoxyethylene 20 sorbitan monoleate). The hybridoma supernatants to be screened are diluted in a 1% (w/v) solution of BSA in PBS-TWEEN® (polyoxyethylene 20 sorbitan monoleate), and incubated for 2 hours at 37°. Level of bound antibody is measured by anti-mouse IgG rabbit immunoglobulin coupled to horseradish peroxidase with OPD as the substrate. After incubation for one hour at room temperature the enzymatic substrate is hydrolyzed and absorbance at 490/650 nm is measured after 15 minutes incubation in the dark.
The direct ELISA according to Example 3 above is converted to a competitive ELISA wherein a competitor is added to the monoclonal antibody solution, and binding of the mAB to the conjugate in the presence and absence of the competitor is measured. Standard curves to determine cross-reactivity of a selected antibody to terbinafine and its derivatives are prepared using solutions containing known concentrations of terbinafine and appropriate derivatives (e.g. 10 μ/ml to 0.0001 μg/ml in buffer).
The result of such competitive assay for the purified antibodies from hybridoma cell line LAM-JA (where the immunogen used was carboxy-terbinafine coupled to OVA), is as follows:
The measurement of antibody response to substances other than the analyte is the crossreactivity. It may be “expressed as the point where the reduction in signal corresponds to 50% of the signal achieved in the absence of analyte (B/B0=50%), as a percentage of the analyte concentration giving the same fall in signal” [The Immunoassay Handbook, David Wild, Stockton Press, USA, 1994].
% crossreactivity is calculated as follows from FIG. 1: […]

Structure (SMILES) | Inhibition (%) at terbinafine concentration (μg/ml) 0.0001
CN(C/C=C/C#CC(C)(C)CO)Cc1cccc2ccccc12 [Hydroxy-terbinafine, (E)-2,2-dimethyl-7-[methyl(naphthalen-1-ylmethyl)amino]hept-5-en-3-yn-1-ol] | 0.40%
CN(C/C=C/C#CC(C)(C)C)Cc1cccc2ccccc12 [Terbinafine ch, (E)-N-(6,6-dimethylhept-2-en-4-ynyl)-N-methyl-1-naphthalene methanamine] | 0.99%
CC(C)(C#C/C=C/CNCc1cccc2ccccc12)C(=O)O [Desmethyl-carboxy-terbinafine, (E)-2,2-dimethyl-7-[(naphthalen-1-ylmethyl)amino]hept-5-en-3-ynoic acid] | 2.81%
CC(C)(C#C/C=C/CNCc1cccc2ccccc12)CO [Desmethyl-hydroxy-terbinafine, (E)-2,2-dimethyl-7-[(naphthalen-1-ylmethyl)amino]hept-5-en-3-yn-1-ol] | 3.60%
CN(C/C=C/C#CC(C)(C)C(=O)O)Cc1cccc2ccccc12 [Carboxy-terbinafine, (E)-2,2-dimethyl-7-[methyl(naphthalen-1-ylmethyl)amino]hept-5-en-3-ynoic acid] | 0.85%
CC(C)(C)C#C/C=C/CNCc1cccc2ccccc12 [Desmethyl-terbinafine ch, (E)-N-(6,6-dimethylhept-2-en-4-ynyl)-1-naphthalenemethanamine] | −0.45%

Same assay, conditions: competitor 0.001 μg/ml; mAb LAM-JA binding to terbinafine-BSA conjugate

Structure (SMILES) | Inhibition (%) at terbinafine concentration (μg/ml) 0.001
CN(C/C=C/C#CC(C)(C)CO)Cc1cccc2ccccc12 [Hydroxy-terbinafine, (E)-2,2-dimethyl-7-[methyl(naphthalen-1-ylmethyl)amino]hept-5-en-3-yn-1-ol] | 0.56%
CN(C/C=C/C#CC(C)(C)C)Cc1cccc2ccccc12 [Terbinafine ch, (E)-N-(6,6-dimethylhept-2-en-4-ynyl)-N-methyl-1-naphthalene methanamine] | −1.92%
CC(C)(C#C/C=C/CNCc1cccc2ccccc12)C(=O)O [Desmethyl-carboxy-terbinafine, (E)-2,2-dimethyl-7-[(naphthalen-1-ylmethyl)amino]hept-5-en-3-ynoic acid] | 1.38%
CC(C)(C#C/C=C/CNCc1cccc2ccccc12)CO [Desmethyl-hydroxy-terbinafine, (E)-2,2-dimethyl-7-[(naphthalen-1-ylmethyl)amino]hept-5-en-3-yn-1-ol] | 0.79%
CN(C/C=C/C#CC(C)(C)C(=O)O)Cc1cccc2ccccc12 [Carboxy-terbinafine, (E)-2,2-dimethyl-7-[methyl(naphthalen-1-ylmethyl)amino]hept-5-en-3-ynoic acid] | 2.11%
CC(C)(C)C#C/C=C/CNCc1cccc2ccccc12 [Desmethyl-terbinafine ch, (E)-N-(6,6-dimethylhept-2-en-4-ynyl)-1-naphthalenemethanamine] | −0.14%

Same assay, conditions: competitor 0.01 μg/ml; mAb LAM-JA binding to terbinafine-BSA conjugate

Structure (SMILES) | Inhibition (%) at terbinafine concentration (μg/ml) 0.01
CN(C/C=C/C#CC(C)(C)CO)Cc1cccc2ccccc12 [Hydroxy-terbinafine, (E)-2,2-dimethyl-7-[methyl(naphthalen-1-ylmethyl)amino]hept-5-en-3-yn-1-ol] | 3.74%
CN(C/C=C/C#CC(C)(C)C)Cc1cccc2ccccc12 [Terbinafine ch, (E)-N-(6,6-dimethylhept-2-en-4-ynyl)-N-methyl-1-naphthalene methanamine] | 2.70%
CC(C)(C#C/C=C/CNCc1cccc2ccccc12)C(=O)O [Desmethyl-carboxy-terbinafine, (E)-2,2-dimethyl-7-[(naphthalen-1-ylmethyl)amino]hept-5-en-3-ynoic acid] | 3.74%
CC(C)(C#C/C=C/CNCc1cccc2ccccc12)CO [Desmethyl-hydroxy-terbinafine, (E)-2,2-dimethyl-7-[(naphthalen-1-ylmethyl)amino]hept-5-en-3-yn-1-ol] | 1.60%
CN(C/C=C/C#CC(C)(C)C(=O)O)Cc1cccc2ccccc12 [Carboxy-terbinafine, (E)-2,2-dimethyl-7-[methyl(naphthalen-1-ylmethyl)amino]hept-5-en-3-ynoic acid] | 4.30%
CC(C)(C)C#C/C=C/CNCc1cccc2ccccc12 [Desmethyl-terbinafine ch, (E)-N-(6,6-dimethylhept-2-en-4-ynyl)-1-naphthalenemethanamine] | 1.55%

Same assay, conditions: competitor 0.1 μg/ml; mAb LAM-JA binding to terbinafine-BSA conjugate

Structure (SMILES) | Inhibition (%) at terbinafine concentration (μg/ml) 0.1
CN(C/C=C/C#CC(C)(C)CO)Cc1cccc2ccccc12 [Hydroxy-terbinafine, (E)-2,2-dimethyl-7-[methyl(naphthalen-1-ylmethyl)amino]hept-5-en-3-yn-1-ol] | 72.5%
CN(C/C=C/C#CC(C)(C)C)Cc1cccc2ccccc12 [Terbinafine ch, (E)-N-(6,6-dimethylhept-2-en-4-ynyl)-N-methyl-1-naphthalene methanamine] | 31.5%
CC(C)(C#C/C=C/CNCc1cccc2ccccc12)C(=O)O [Desmethyl-carboxy-terbinafine, (E)-2,2-dimethyl-7-[(naphthalen-1-ylmethyl)amino]hept-5-en-3-ynoic acid] | 4.40%
CC(C)(C#C/C=C/CNCc1cccc2ccccc12)CO [Desmethyl-hydroxy-terbinafine, (E)-2,2-dimethyl-7-[(naphthalen-1-ylmethyl)amino]hept-5-en-3-yn-1-ol] | 5.30%
CN(C/C=C/C#CC(C)(C)C(=O)O)Cc1cccc2ccccc12 [Carboxy-terbinafine, (E)-2,2-dimethyl-7-[methyl(naphthalen-1-ylmethyl)amino]hept-5-en-3-ynoic acid] | 25.8%
CC(C)(C)C#C/C=C/CNCc1cccc2ccccc12 [Desmethyl-terbinafine ch, (E)-N-(6,6-dimethylhept-2-en-4-ynyl)-1-naphthalenemethanamine] | 1.22%

Same assay, conditions: competitor 1 μg/ml; mAb LAM-JA binding to terbinafine-BSA conjugate

Structure (SMILES) | Inhibition (%) at terbinafine concentration (μg/ml) 1
CN(C/C=C/C#CC(C)(C)CO)Cc1cccc2ccccc12 [Hydroxy-terbinafine, (E)-2,2-dimethyl-7-[methyl(naphthalen-1-ylmethyl)amino]hept-5-en-3-yn-1-ol] | 92.9%
CN(C/C=C/C#CC(C)(C)C)Cc1cccc2ccccc12 [Terbinafine ch, (E)-N-(6,6-dimethylhept-2-en-4-ynyl)-N-methyl-1-naphthalene methanamine] | 73.8%
CC(C)(C#C/C=C/CNCc1cccc2ccccc12)C(=O)O [Desmethyl-carboxy-terbinafine, (E)-2,2-dimethyl-7-[(naphthalen-1-ylmethyl)amino]hept-5-en-3-ynoic acid] | 3.85%
CC(C)(C#C/C=C/CNCc1cccc2ccccc12)CO [Desmethyl-hydroxy-terbinafine, (E)-2,2-dimethyl-7-[(naphthalen-1-ylmethyl)amino]hept-5-en-3-yn-1-ol] | 15.7%
CN(C/C=C/C#CC(C)(C)C(=O)O)Cc1cccc2ccccc12 [Carboxy-terbinafine, (E)-2,2-dimethyl-7-[methyl(naphthalen-1-ylmethyl)amino]hept-5-en-3-ynoic acid] | 63.8%
CC(C)(C)C#C/C=C/CNCc1cccc2ccccc12 [Desmethyl-terbinafine ch, (E)-N-(6,6-dimethylhept-2-en-4-ynyl)-1-naphthalenemethanamine] | 5.96%

Same assay, conditions: competitor 10 μg/ml; mAb LAM-JA binding to terbinafine-BSA conjugate

Structure (SMILES) | Inhibition (%) at terbinafine concentration (μg/ml) 10
CN(C/C=C/C#CC(C)(C)CO)Cc1cccc2ccccc12 [Hydroxy-terbinafine, (E)-2,2-dimethyl-7-[methyl(naphthalen-1-ylmethyl)amino]hept-5-en-3-yn-1-ol] | 93.0%
CN(C/C=C/C#CC(C)(C)C)Cc1cccc2ccccc12 [Terbinafine ch, (E)-N-(6,6-dimethylhept-2-en-4-ynyl)-N-methyl-1-naphthalene methanamine] | 92.6%
CC(C)(C#C/C=C/CNCc1cccc2ccccc12)C(=O)O [Desmethyl-carboxy-terbinafine, (E)-2,2-dimethyl-7-[(naphthalen-1-ylmethyl)amino]hept-5-en-3-ynoic acid] | 12.1%
CC(C)(C#C/C=C/CNCc1cccc2ccccc12)CO [Desmethyl-hydroxy-terbinafine, (E)-2,2-dimethyl-7-[(naphthalen-1-ylmethyl)amino]hept-5-en-3-yn-1-ol] | 58.0%
CN(C/C=C/C#CC(C)(C)C(=O)O)Cc1cccc2ccccc12 [Carboxy-terbinafine, (E)-2,2-dimethyl-7-[methyl(naphthalen-1-ylmethyl)amino]hept-5-en-3-ynoic acid] | 89.2%
CC(C)(C)C#C/C=C/CNCc1cccc2ccccc12 [Desmethyl-terbinafine ch, (E)-N-(6,6-dimethylhept-2-en-4-ynyl)-1-naphthalenemethanamine] | 7.87%

Same assay, conditions: relative to terbinafine at B/B0=50%, calculated from FIG. 1; mAb LAM-JA

Structure (SMILES) | % crossreactivity
CC(C)(C#C/C=C/CNCc1cccc2ccccc12)C(=O)O [Desmethyl-carboxy-terbinafine, (E)-2,2-dimethyl-7-[(naphthalen-1-ylmethyl)amino]hept-5-en-3-ynoic acid] | not detectable
CC(C)(C#C/C=C/CNCc1cccc2ccccc12)CO [Desmethyl-hydroxy-terbinafine, (E)-2,2-dimethyl-7-[(naphthalen-1-ylmethyl)amino]hept-5-en-3-yn-1-ol] | 4.5%
CC(C)(C)C#C/C=C/CNCc1cccc2ccccc12 [Desmethyl-terbinafine ch, (E)-N-(6,6-dimethylhept-2-en-4-ynyl)-1-naphthalenemethanamine] | not detectable

Tested on: not listed separately
Assay: HPLC and UV detection of terbinafine metabolites in the nail matrix
Details: HPLC with UV detection
Source text: Thus, in relation to the cross-reactivities of the antibodies of the invention with the above metabolites (see Example 4), no detection interferences are likely to be encountered with terbinafine in nails.

Structure (SMILES) | presence in the nail matrix
CN(C/C=C/C#CC(C)(C)CO)Cc1cccc2ccccc12 [Hydroxy-terbinafine, (E)-2,2-dimethyl-7-[methyl(naphthalen-1-ylmethyl)amino]hept-5-en-3-yn-1-ol] | no hint for the presence
CC(C)(C#C/C=C/CNCc1cccc2ccccc12)CO [Desmethyl-hydroxy-terbinafine, (E)-2,2-dimethyl-7-[(naphthalen-1-ylmethyl)amino]hept-5-en-3-yn-1-ol] | no hint for the presence
CN(C/C=C/C#CC(C)(C)C(=O)O)Cc1cccc2ccccc12 [Carboxy-terbinafine, (E)-2,2-dimethyl-7-[methyl(naphthalen-1-ylmethyl)amino]hept-5-en-3-ynoic acid] | no hint for the presence
CC(C)(C)C#C/C=C/CNCc1cccc2ccccc12 [Desmethyl-terbinafine ch, (E)-N-(6,6-dimethylhept-2-en-4-ynyl)-1-naphthalenemethanamine] | measurable
